According to US9493432B2, “Cyclopentylbenzamide derivatives and their use for the treatment of psychotic and cognitive disorders” (Takeda Pharmaceutical Company Limited, priority 2013, dated 2016):
pIC50: −log10 of the molar value.

Experiments:
human orexin receptor 2 = human orexin receptor 2 (Homo sapiens (Human), UniProt O43614); experiment: Orexin antagonist activity, intracellular calcium FLIPR assay (orexin receptor 2); format: cell-based; details: RBL-2H3 cells stably expressing human orexin receptor 2; Ca2+ dye FLIPR; compound 15 minutes before orexin-A at approximately 80% maximal response; read-out: Human Orexin2R IC50
In short: (§1)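 RBL-2H3 cells stably expressing human OX1 or OX2 were loaded with Calcium 5 dye for 1 h at 37 °C. Compounds were added 15 min before orexin-A at a concentration giving ~80% maximal response, and Ca2+ fluorescence was read by FLIPR.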

human orexin receptor 1 = human orexin receptor 1 (Homo sapiens (Human), UniProt O43613); experiment: Orexin antagonist activity, intracellular calcium FLIPR assay (orexin receptor 1); format: cell-based; details: RBL-2H3 cells stably expressing human orexin receptor 1; Ca2+ dye FLIPR; compound 15 minutes before orexin-A at approximately 80% maximal response; read-out: Human Orexin1R IC50
In short: as §1

Sequence of human orexin receptor 1 (O43613 whole entry): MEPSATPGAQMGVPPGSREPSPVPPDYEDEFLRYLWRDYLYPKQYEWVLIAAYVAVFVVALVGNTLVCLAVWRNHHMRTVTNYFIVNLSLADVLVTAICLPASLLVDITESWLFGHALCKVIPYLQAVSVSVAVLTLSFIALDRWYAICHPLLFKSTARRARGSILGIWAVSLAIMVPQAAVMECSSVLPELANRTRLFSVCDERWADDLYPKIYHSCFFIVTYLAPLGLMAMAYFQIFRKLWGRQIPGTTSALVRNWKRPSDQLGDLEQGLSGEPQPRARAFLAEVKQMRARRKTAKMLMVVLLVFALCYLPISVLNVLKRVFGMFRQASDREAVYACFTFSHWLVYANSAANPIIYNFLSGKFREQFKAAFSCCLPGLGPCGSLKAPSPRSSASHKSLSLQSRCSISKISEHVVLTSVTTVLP
Sequence of human orexin receptor 2 (O43614 whole entry): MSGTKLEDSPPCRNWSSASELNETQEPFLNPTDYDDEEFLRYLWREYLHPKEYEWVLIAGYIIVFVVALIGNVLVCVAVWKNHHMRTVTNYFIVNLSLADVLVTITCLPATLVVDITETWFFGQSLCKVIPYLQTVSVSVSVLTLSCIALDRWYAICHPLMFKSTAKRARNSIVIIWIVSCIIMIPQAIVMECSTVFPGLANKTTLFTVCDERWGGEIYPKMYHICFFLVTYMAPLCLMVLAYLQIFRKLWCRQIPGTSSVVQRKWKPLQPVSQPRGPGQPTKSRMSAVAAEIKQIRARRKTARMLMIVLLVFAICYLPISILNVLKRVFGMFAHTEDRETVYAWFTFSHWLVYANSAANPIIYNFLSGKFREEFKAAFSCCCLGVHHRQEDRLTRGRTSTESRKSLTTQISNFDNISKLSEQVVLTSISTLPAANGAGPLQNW

| Compound | pIC50 (human orexin receptor 2) | pIC50 (human orexin receptor 1) |
| --- | --- | --- |
| O=C(N[C@H]1CCC[C@@H]1Nc1nc2ccccc2s1)c1ccccc1-n1nccn1 [Example 90, N-[(1S,2S)-2-[(1,3-Benzothiazol-2-yl)amino]cyclopentyl]-2-(2H-1,2,3-triazol-2-yl)benzamide] | < 5.00 | 7.80 |
| O=C(N[C@H]1CCC[C@@H]1Nc1nc2cc(F)ccc2s1)c1ccccc1-n1nccn1 [Example 92, N-[(1S,2S)-2-[(5-Fluoro-1,3-benzothiazol-2-yl)amino]cyclopentyl]-2-(2H-1,2,3-triazol-2-yl)benzamide] | 5.07 | 7.85 |
| O=C(N[C@H]1CCC[C@@H]1Nc1nc2c(F)cccc2s1)c1ccccc1-n1nccn1 [Example 94, N-[(1S,2S)-2-[(4-Fluoro-1,3-benzothiazol-2-yl)amino]cyclopentyl]-2-(2H-1,2,3-triazol-2-yl)benzamide] | < 5.00 | 7.52 |
| O=C(N[C@H]1CCC[C@@H]1Nc1nc2cccnc2s1)c1ccccc1-n1nccn1 [Example 95, N-[(1S,2S)-2-({[1,3]Thiazolo[5,4-b]pyridin-2-yl}amino)cyclopentyl]-2-(2H-1,2,3-triazol-2-yl)benzamide] | < 5.00 | 7.39 |
| O=C(N[C@H]1CCC[C@@H]1Nc1nc2c(Cl)cncc2s1)c1ccccc1-n1nccn1 [Example 96, N-[(1S,2S)-2-({7-Chloro-[1,3]thiazolo[5,4-c]pyridin-2-yl}amino)cyclopentyl]-2-(2H-1,2,3-triazol-2-yl)benzamide] | < 5.00 | 6.32 |

The next compounds have a higher pIC50 (human orexin receptor 2) than those just listed; values first:

| pIC50 (human orexin receptor 2) | pIC50 (human orexin receptor 1) | Compound |
| --- | --- | --- |
| 5.21 | 7.85 | O=C(N[C@H]1CCC[C@@H]1Nc1nc2c(F)cc(F)cc2s1)c1ccccc1-n1nccn1 [Example 93, N-[(1S,2S)-2-[(4,6-Difluoro-1,3-benzothiazol-2-yl)amino]cyclopentyl]-2-(2H-1,2,3-triazol-2-yl)benzamide] |
| 5.68 | 6.51 | COc1cccc(OC)c1C(=O)NC1CCCC1Cc1ccc2ccccc2n1 (stereo not drawn) [Example 98, 2,6-Dimethoxy-N-[2-(quinolin-2-ylmethyl)cyclopentyl]benzamide] |
| 7.22 | 8.15 | CC1(Nc2nc3ccc(F)cc3s2)CCCC1NC(=O)c1ccccc1-n1nccn1 (stereo not drawn) [Example 107, N-{2-[(6-Fluoro-1,3-benzothiazol-2-yl)amino]-2-methylcyclopentyl}-2-(2H-1,2,3-triazol-2-yl)benzamide] |
| 6.73 | 7.89 | CC1(Nc2nc3ccc(Cl)cc3s2)CCCC1NC(=O)c1ccccc1-n1nccn1 (stereo not drawn) [Example 108, N-{2-[(6-Chloro-1,3-benzothiazol-2-yl)amino]-2-methylcyclopentyl}-2-(2H-1,2,3-triazol-2-yl)benzamide] |
